Measurements taken from US7494996B2 (priority 2000, dated 2009).

How the values were obtained:
Two-Spotted Spider Mite = assay: Protocol 1 Two-Spotted Spider Mite (MTA) foliar spray test; type: in vivo, Tetranychus urticae; settings: Protocol 1, DOSE 150; percentage of mites killed 1-day post-treatment
Description: A test solution containing 1250 parts per million (ppm) was prepared by dissolving the test compound in […] of a second solvent (acetone: water, 1:1) to give an acetone:water: methanol system of 50: 40:10.
The enclosed spraying chamber consisted of a single spray nozzle mounted on a boom moving at a fixed speed and distance over stationary targets. The vertical distance from the nozzle tip to the targets was adjusted to give rates varying from 150 g/ha to 600 g/ha
A pad of moistened cotton was placed in a Petri dish. A 1-inch square section cut from a fully expanded primary lima bean (Phaseolus limensis) leaf was positioned bottom side up on the moist cotton. The leaf square was infested with approximately 50 adult female mites. The dishes were sprayed with the test solutions and held at 27° C. for mortality determination 1-day post-treatment. The percentage of mites killed were rated from 100% (all dead) to 0% (all alive).

Sphaerotheca fuliginea = assay: Cucumber Powdery Mildew (CPM) protectant test in the greenhouse; type: in vivo; settings: 100 is total disease control, 0 is no disease control; for Cucumber Powdery Mildew (CPM) protectant fungicide data, percent control: 300 g/ha; for pest or weed control at 300 g/ha: Podosphaera fuliginea, topical, 168 h, read-out: Cucumber Powdery Mildew (CPM) protectant fungicide data, percent control
How it was run: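 Protectant format: one day after spraying with test compound (A/M/W 1:1:2), cotyledon-plus-one-leaf cucumber plants were misted with Sphaerotheca spores at 2×10^5/ml. Greenhouse disease development; percent control scored at day 7 (100 = total, 0 = none).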

Pyricularia oryzae = assay: whole plant or invertebrate; type: in vivo; settings: 100 is total disease control, 0 is no disease control; for Rice Blast (RB) protectant fungicide data, percent control: 300 g/ha, greenhouse; for pest or weed control at 300 g/ha: Pyricularia oryzae, topical, 144 h, read-out: Rice Blast (RB) protectant fungicide data, percent control, protectant, 300 g/ha, greenhouse

| Compound | MTA (Two-Spotted Spider Mite) [%] | Cucumber Powdery Mildew (CPM) protectant fungicide data, percent control (Sphaerotheca fuliginea) [percent control] | Rice Blast (RB) protectant fungicide data, percent control (Pyricularia oryzae) [percent control] | pest or weed control at 300 g/ha (Sphaerotheca fuliginea) [%] | pest or weed control at 300 g/ha (Pyricularia oryzae) [%] |
| --- | --- | --- | --- | --- | --- |
| O=C1CN(Cc2ccc(Cl)s2)C(c2ccc(Cl)cc2)=NN1Cc1ccc(Cl)s1 [Compound 63] | 0 | – | – | – | – |
| CCCCN1N=C(c2ccc(F)c(F)c2)NCC1=O [Compound 69] | 68 | 80 | 95 | – | – |
| O=C1CN(CC2CC2)C(c2cccc(F)c2)=NN1CC1CC1 [Compound 222] | – | 50 | 0 | – | – |
| O=C1CNC(c2cccc(F)c2)=NN1CC1CC1 [Compound 223] | – | 80 | 95 | – | – |
| O=C1CN(CC2CC2)C(c2cccc(Br)c2)=NN1CC1CC1 [Compound 224] | – | 50 | 75 | – | – |
| C#CCN1N=C(c2cccc(F)c2)NCC1=O [Compound 225] | – | 0 | 80 | – | – |
| C#CCN1CC(=O)N(CC#C)N=C1c1cccc(Br)c1 [Compound 226] | – | 0 | 50 | – | – |
| C#CCN1N=C(c2cccc(Br)c2)NCC1=O [Compound 227] | – | 75 | 90 | – | – |
| CCCCN1N=C2C=CC(c3ccc(Cl)cc3)=NN2CC1=O [Compound 229] | – | – | – | 50 | 0 |
| CCCCN1N=C(c2ccc(C3=NN(CCCC)C(=O)CN3)cc2)NCC1=O [Compound 230] | – | – | – | 0 | 75 |
| CCCCN1N=C(c2ccc(-c3ccc(C4=NN(CCCC)C(=O)CN4)cc3)cc2)NCC1=O [Compound 231] | – | – | – | 0 | 85 |
| CCCCN1N=C(c2cccc(C3=NN(CCCC)C(=O)CN3)c2)NCC1=O [Compound 232] | – | 99 | 100 | – | – |
| CCC#CCn1nc(-c2ccc(Cl)cc2)nc(C)c1=O [Compound 237] | – | 95 | 0 | – | – |
| O=c1cnc(-c2ccccc2)n[nH]1 [Compound 243] | – | 0 | 75 | – | – |
| CCCCn1nc(-c2ccc(OC)cc2)ncc1=O [Compound 244] | – | 50 | 100 | – | – |
| FC(F)(F)Cn1nc(-c2cccc(Cl)c2)ncc1=S [Compound 246] | – | 0 | 100 | – | – |
| CCOC(=O)Cn1nc(-c2ccc(Cl)cc2)ncc1=O [Compound 250] | – | 50 | 90 | – | – |
| CCCCCn1nc(-c2cc(Cl)c(C)c(Cl)c2)ncc1=O [Compound 257] | – | 50 | 95 | – | – |
| CCCCn1nc(-c2ccc(Cl)cc2)ncc1=O [Compound 258] | – | 75 | 100 | – | – |
| O=c1cnc(-c2ccc(Cl)cc2)nn1-c1ccccn1 [Compound 261] | – | 0 | 50 | – | – |
| O=c1cnc(-c2ccccc2F)nn1CC(F)(F)F [Compound 263] | – | 85 | 80 | – | – |
| N#CCn1nc(-c2ccc(Cl)cc2)ncc1=O [Compound 264] | – | 0 | 50 | – | – |
| O=c1cnc(-c2ccccc2Cl)nn1CC(F)(F)F [Compound 267] | – | 85 | 80 | – | – |

| Compound | MTA (Two-Spotted Spider Mite) [%] | Cucumber Powdery Mildew (CPM) protectant fungicide data, percent control (Sphaerotheca fuliginea) [percent control] | Rice Blast (RB) protectant fungicide data, percent control (Pyricularia oryzae) [percent control] | pest or weed control at 300 g/ha (Sphaerotheca fuliginea) [%] | pest or weed control at 300 g/ha (Pyricularia oryzae) [%] |
| --- | --- | --- | --- | --- | --- |
| CCCCn1nc(-c2sc(C)nc2C(F)(F)F)ncc1=O [Compound 268] | – | 75 | 0 | – | – |
| CCCCn1nc(-c2cc(Cl)ccc2Cl)ncc1=O [Compound 269] | – | 0 | 99 | – | – |
| O=c1cnc(-c2ccc(Cl)c(Cl)c2)nn1CC1CC1 [Compound 272] | – | 80 | 100 | – | – |
| CCOc1ccc(-c2ncc(=O)n(-c3ccc(Cl)cc3)n2)cc1 [Compound 274] | – | 0 | 85 | – | – |
| CCOC(=O)Cn1nc(-c2cccc(C)c2)ncc1=O [Compound 275] | – | 0 | 85 | – | – |
| N#CCCn1nc(-c2ccc(-c3ccc([N+](=O)[O-])cc3)cc2)ncc1=O [Compound 276] | – | 0 | 85 | – | – |
| CCCCn1nc(-c2cccc(Cl)c2)ncc1=O [Compound 277] | – | 0 | 95 | – | – |
| Cc1cccc(-n2nc(-c3cccc(Cl)c3)ncc2=O)c1 [Compound 278] | – | 0 | 85 | – | – |
| CCCCOc1ccc(-c2ncc(=O)n(CCC)n2)cc1 [Compound 280] | – | 0 | 50 | – | – |
| CCCOc1ccc(-c2ncc(=O)n(CC(F)(F)F)n2)cc1 [Compound 281] | – | 95 | 85 | – | – |
| Cn1nc(-c2ccc(Oc3ccccc3)cc2)ncc1=O [Compound 282] | – | 75 | 75 | – | – |
| CCCCn1nc(-c2ccccc2OC)ncc1=O [Compound 283] | – | 50 | 90 | – | – |
| CCCCn1nc(-c2ccccc2O)ncc1=O [Compound 287] | – | 0 | 80 | – | – |
| CCCCn1nc(-c2cc(C(F)(F)F)cc(C(F)(F)F)c2)ncc1=O [Compound 288] | – | 75 | 0 | – | – |
| CCCCn1nc(-c2ccc(F)c(Br)c2)ncc1=O [Compound 289] | – | 50 | 100 | – | – |
| O=c1cnc(-c2ccc(F)c(Br)c2)nn1CC(F)(F)F [Compound 290] | – | 50 | 100 | – | – |
| Cc1ccccc1-c1nn(CC(F)(F)F)c(=O)c(=O)[nH]1 [Compound 291] | – | – | – | 0 | 80 |
| COC(=O)SN1CC(=O)N(CC(F)(F)F)N=C1c1cc(Cl)cc(Cl)c1 [Compound 292] | – | 75 | 99 | – | – |
| Cc1ccc(C2=NN(CC(F)(F)F)C(=O)CN2)cc1Cl [Compound 293] | – | 50 | 100 | – | – |
| CCCCN1N=C(c2ccc(C)c(Cl)c2)NCC1=O [Compound 294] | – | 80 | 100 | – | – |
| CCCCN1N=C(c2cc(C)cc(C)c2)NCC1=O [Compound 295] | – | 50 | 99 | – | – |
| Cc1cc(C)cc(C2=NN(CC(F)(F)F)C(=O)CN2)c1 [Compound 296] | – | 75 | 98 | – | – |
